Legend:
[1] = system: THP-1 cells; assay: Cholesterol efflux assay; type: cell-based; settings: Homo sapiens; THP-1 cells differentiated to macrophages, [3H]cholesterol loaded, efflux induced by 10 μg/ml Apolipoprotein AI, 6 hrs; percent stimulation over DMSO
Method: The ability of compounds of the invention to stimulate cholesterol efflux is determined in replicate cultures of THP-1 cells in 96-well microplates. Cells are plated at an initial density of 150,000 cells/well and differentiated to macrophages with the addition of PMA (100 ng/ml) for 72 hrs in 10% fetal bovine serum, 3 μI/L of b-mercaptoethanol, RPMI-1640 medium. Cells are washed once with RPMI-1640 and loaded with RPMI-1640 medium containing 2% FCS, 50 μg/ml acetylated LDL, and 10 μCi/ml [^3H]cholesterol for 48 hours at 37° C. After loading the cells are washed once with RPMI-1640 and incubated with the compound of interest from DMSO solutions for an additional 24 hrs in RPMI-1640 medium containing 1 mg/ml fatty acid free-bovine serum albumin (BSA). Upon incubation cells are washed once, and cholesterol efflux is induced by the addition of 10 μg/ml Apolipoprotein Al in RPMI-1640 containing 1 mg/ml BSA and in the presence of the compound for an additional 6 hrs. Following incubation radioactivity is determined in the supernatants and cholesterol efflux is expressed as the percent stimulation over replicate cultures treated only with DMSO. Sigmoidal curves were fitted using the XLfit3 program (ID Business Solutions Ltd. UK) and EC50 values were determined.

[2] = target: cannabinoid CB1 receptor (Homo sapiens, UniProt P21554); assay: CB1-receptor binding assay; settings: determined as described in WO 2006/106054, page 36
Method: The affinity of the compounds of formula I of the present invention towards cannabinoid CB1 receptors was determined as described in WO 2006/106054, page 36.

Chain of cannabinoid CB1 receptor (P21554 whole entry): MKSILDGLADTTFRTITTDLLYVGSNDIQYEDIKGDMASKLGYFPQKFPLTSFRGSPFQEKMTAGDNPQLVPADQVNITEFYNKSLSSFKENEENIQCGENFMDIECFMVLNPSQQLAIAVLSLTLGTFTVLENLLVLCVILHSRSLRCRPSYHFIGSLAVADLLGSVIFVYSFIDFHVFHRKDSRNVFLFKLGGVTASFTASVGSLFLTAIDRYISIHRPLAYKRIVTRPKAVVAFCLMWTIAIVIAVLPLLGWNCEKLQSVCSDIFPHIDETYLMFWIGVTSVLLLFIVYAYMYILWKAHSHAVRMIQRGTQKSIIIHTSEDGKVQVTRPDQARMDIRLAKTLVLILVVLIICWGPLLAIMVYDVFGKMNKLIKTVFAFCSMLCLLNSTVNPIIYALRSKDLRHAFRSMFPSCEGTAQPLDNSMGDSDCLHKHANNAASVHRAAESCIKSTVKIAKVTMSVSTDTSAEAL

Compound	EC50 [1]	IC50 [2]
O=C(N[C@@H]1CCCC[C@H]1O)c1cc(-c2ccc(Cl)cc2)c(OCC(F)(F)F)nc1C(F)(F)F [Example 4, 5-(4-chloro-phenyl)-N-((1R,2R)-2-hydroxy-cyclohexyl)-6-(2,2,2-trifluoro-ethoxy)-2-trifluoromethyl-nicotinamide]	0.39 µM	5.6 µM
O=C(N[C@H]1CCCC[C@H]1O)c1cc(-c2ccc(Cl)cc2)c(OCC(F)(F)F)nc1C(F)(F)F [Example 4C, 5-(4-chloro-phenyl)-N-((1S,2R)-2-hydroxy-cyclohexyl)-6-(2,2,2-trifluoro-ethoxy)-2-trifluoromethyl-nicotinamide]	2.5 µM	> 10 µM
CC(O)(CNC(=O)c1cc(-c2ccc(Cl)cc2)c(OCC(F)(F)F)nc1C(F)(F)F)C1CC1 (stereo not shown) [Example 1, 5-(4-chloro-phenyl)-N-(2-cyclopropyl-2-hydroxy-propyl)-6-(2,2,2-trifluoro-ethoxy)-2-trifluoromethyl-nicotinamide]	0.45 µM	~10 µM
CC(O)(CNC(=O)c1cc(-c2cccc(Cl)c2)c(OCC(F)(F)F)nc1C(F)(F)F)C1CC1 (stereo not shown) [Example 3, 5-(3-chloro-phenyl)-N-(2-cyclopropyl-2-hydroxy-propyl)-6-(2,2,2-trifluoro-ethoxy)-2-trifluoromethyl-nicotinamide]	0.48 µM	> 10 µM
CC(O)(CNC(=O)c1cc(-c2ccc(Cl)c(Cl)c2)c(OCC(F)(F)F)nc1C(F)(F)F)C1CC1 (stereo not shown) [Example 2, N-(2-cyclopropyl-2-hydroxy-propyl)-5-(3,4-dichloro-phenyl)-6-(2,2,2-trifluoro-ethoxy)-2-trifluoromethyl-nicotinamide]	1.07 µM	> 10 µM
CC(C)CC(CO)NC(=O)c1cc(-c2ccc(NS(C)(=O)=O)cc2)c(OCc2ccccn2)nc1C(F)(F)F (stereo not shown) [Example 5, N-(1-hydroxymethyl-3-methyl-butyl)-5-(4-methanesulfonylamino-phenyl)-6-(pyridin-2-ylmethoxy)-2-trifluoromethyl-nicotinamide]	0.89 µM	~10 µM
CS(=O)(=O)Nc1ccc(-c2cc(C(=O)N[C@@H]3CCCC[C@H]3O)c(C(F)(F)F)nc2OCC(F)(F)F)cc1 [Example 6, N-((1R,2R)-2-hydroxy-cyclohexyl)-5-(4-methanesulfonylamino-phenyl)-6-(2,2,2-trifluoro-ethoxy)-2-trifluoromethyl-nicotinamide]	0.56 µM	> 10 µM
C[C@@](O)(CNC(=O)c1cc(-c2ccc(Cl)c(Cl)c2)c(OCC(F)(F)F)nc1C(F)(F)F)C1CC1 [Example 2B, N-((S)-2-cyclopropyl-2-hydroxy-propyl)-5-(3,4-dichloro-phenyl)-6-(2,2,2-trifluoro-ethoxy)-2-trifluoromethyl-nicotinamide]	1.4 µM	> 10 µM
O=C(N[C@@H]1CCCC[C@H]1O)c1cc(-c2ccc(Cl)c(Cl)c2)c(OCc2ccccn2)nc1C(F)(F)F [Example 7, 5-(3,4-dichloro-phenyl)-N-((1R,2R)-2-hydroxy-cyclohexyl)-6-(pyridin-2-ylmethoxy)-2-trifluoromethyl-nicotinamide]	0.64 µM	> 10 µM
O=C(N[C@@H]1CCCC[C@@H]1O)c1cc(-c2ccc(Cl)cc2)c(OCC(F)(F)F)nc1C(F)(F)F [Example 4B, 5-(4-chloro-phenyl)-N-((1R,2S)-2-hydroxy-cyclohexyl)-6-(2,2,2-trifluoro-ethoxy)-2-trifluoromethyl-nicotinamide]	1.2 µM	> 10 µM
C[C@](O)(CNC(=O)c1cc(-c2ccc(Cl)c(Cl)c2)c(OCC(F)(F)F)nc1C(F)(F)F)C1CC1 [Example 2A, N-((R)-2-cyclopropyl-2-hydroxy-propyl)-5-(3,4-dichloro-phenyl)-6-(2,2,2-trifluoro-ethoxy)-2-trifluoromethyl-nicotinamide]	1.63 µM	> 10 µM

From patent US7897621B2, “2-trifluoromethylnicotinamide derivatives as HDL-cholesterol raising agents” (Hoffmann-La Roche Inc., priority 2008, dated 2011)
